Reference: patent US20070134349A1, “Methods of treating hematological malignancies” (DUKE UNIVERSITY, priority 2005, published 2007)

Legend:
NB4 cells [1] = experiment: Differentiation markers CD11c/CD11b by flow cytometry in NB4 cells; assay type: cell-based; conditions: for NB4 differentiation: FIG. 10; for NB4 cell differentiation (CD11c): 21 h
Experimental: (§1) NB4 cells were provided by Dr. Ronald Evans (Salk Institute, La Jolla, Calif.). NB4-R4 cells were provided by Dr. Wilson Miller (McGill University, Montreal, Canada). HL-60, U-937, and Kasumi-1 cells were obtained from the American Type Culture Collection (Rockville, Md.). NB4 and NB4-R4 cells were grown in RPMI medium 1640 containing 10% fetal bovine serum. U-937 cells were grown in RPMI medium 1640 containing 10 mM HEPES, 1 mM sodium pyruvate, 4.5 g/L glucose, and 10% fetal bovine serum. HL-60 cells were grown in Iscove's Modified Dulbecco's medium containing 20% fetal bovine serum. Kasumi-1 cells were grown in RPMI medium 1640 containing 10 mM HEPES, 1 mM sodium pyruvate, 4.5 g/L glucose, and 20% fetal bovine serum.
(§2) To determine the percentage of cells that express differentiation markers, cells were washed once and resuspended in RPMI medium 1640 containing 3% fetal bovine serum. Phycoerythrin (PE)-conjugated CD11b, 5 Allophycocyanin (APC)-CD11c or control antibodies (BD Pharmingen, San Diego, Calif.) were added into cell suspension. After 30 minutes of incubation in the dark at 4° C., the cells were washed twice and resuspended in RPMI medium 1640 containing 7-amino actinomycin D (AAD) (for dead cell exclusion) and analyzed by FACScan (Becton Dickinson).

RARE-TK-Luc reporter = RARE-TK-Luc reporter transient transfection in NB4 cells; assay type: cell-based; conditions: ATRA 1 μM, 19 h
Experimental: Electroporation was performed using a Gene Pulser (BioRad, Hercules, Calif.) apparatus at 300 V and 960 μF capacity. […] Cells were harvested 19 h after transfection/treatment for luciferase and β-galactosidase activities.

PML-RARα = target: T1, PML-RARα (Homo sapiens, UniProt P10276+P29590); experiment: Western blot of PML-RARα and RARα in NB4 cells; assay type: cell-based; conditions: 3 days
T1 construct: PML portion (fusion partner, UniProt P29590); endogenous in cells; host or cells: NB4 cells
T1 sequence (P29590+P10276 with tags, fused parts or gaps): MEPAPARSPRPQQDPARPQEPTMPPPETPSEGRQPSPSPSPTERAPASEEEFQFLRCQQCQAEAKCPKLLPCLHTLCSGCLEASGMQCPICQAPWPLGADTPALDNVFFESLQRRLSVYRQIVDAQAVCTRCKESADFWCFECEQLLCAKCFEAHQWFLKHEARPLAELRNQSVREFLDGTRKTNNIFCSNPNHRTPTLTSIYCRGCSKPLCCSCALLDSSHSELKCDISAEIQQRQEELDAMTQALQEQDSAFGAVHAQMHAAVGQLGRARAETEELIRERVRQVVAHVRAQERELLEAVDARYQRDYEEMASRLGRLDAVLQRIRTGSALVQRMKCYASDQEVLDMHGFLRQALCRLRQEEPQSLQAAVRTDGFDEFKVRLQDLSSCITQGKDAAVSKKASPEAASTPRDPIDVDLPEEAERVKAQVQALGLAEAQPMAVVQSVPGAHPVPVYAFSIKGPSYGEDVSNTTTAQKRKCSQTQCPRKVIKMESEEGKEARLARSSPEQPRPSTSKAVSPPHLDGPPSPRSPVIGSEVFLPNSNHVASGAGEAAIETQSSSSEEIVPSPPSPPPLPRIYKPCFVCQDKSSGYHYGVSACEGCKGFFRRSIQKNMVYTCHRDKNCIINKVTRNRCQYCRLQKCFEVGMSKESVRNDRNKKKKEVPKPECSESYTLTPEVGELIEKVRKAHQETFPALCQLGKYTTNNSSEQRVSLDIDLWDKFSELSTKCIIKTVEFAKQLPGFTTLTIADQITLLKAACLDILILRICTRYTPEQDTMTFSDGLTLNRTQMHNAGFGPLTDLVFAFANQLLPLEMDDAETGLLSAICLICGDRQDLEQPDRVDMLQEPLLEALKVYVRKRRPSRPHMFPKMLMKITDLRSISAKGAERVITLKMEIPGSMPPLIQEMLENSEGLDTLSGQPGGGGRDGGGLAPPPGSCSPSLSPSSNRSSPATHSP
Experimental: (§3) Whole-cell lysates were prepared by washing the cells with PBS and resuspending them in 1 ml of lysis buffer (1× phosphate-buffered saline, 1 mM EDTA, 1.5 mg/ml of iodoacetamide, 100 μM sodium orthovanadate, 0.5% Triton X-100, 20 mM β-glycerolphosphate, 0.2 mM phenylmethylsulfonyl fluoride, and 1× complete protease inhibitor cocktail). After clarification by a 15-min centrifugation in a microcentrifuge at 4° C., the resulting supernatant was collected. 20-50 μg of protein extracts were separated on a 10% SDS-polyacrylamide gel and transferred to a nitrocellulose membrane. The membrane was blocked with 5% nonfat milk followed by incubation with antibodies. The immunocomplex was visualized by chemiluminescence.

NB4-R4 cells = experiment: CD11c/CD11b expression by flow cytometry in ATRA-resistant NB4-R4 cells; assay type: cell-based; conditions: ATRA treatment, 3 days
Experimental: as §1, §2

U-937 cells [2] = experiment: Annexin V binding in U-937 cells; assay type: cell-based; conditions: higher concentrations, 3 days
Experimental: as §1
(§4) To determine the percentage of cells that undergo apoptosis, after incubation with APC-CD11c antibody in the dark at 4° C., cells were washed twice with PBS and incubated at room temperature for 15 min with PE-conjugated Annexin-V (BD Pharmingen) and 7-AAD in binding buffer (10 mM HEPES, pH 7.4, 140 mM NaCI, 2.5 mM CaCl2) and analyzed by FACScan for CD11c expression and Annexin V binding. Apoptotic cells are those that stained positive for Annexin V and negative for 7-AAD.

C/EBPβ = experiment: Western blot of phospho-C/EBPβ (Thr-235) and C/EBPβ in NB4 cells; assay type: cell-based
Experimental: as §3

H3 [3] = experiment: Western blot of phospho-H3 (Ser-10) in NB4 cells; assay type: cell-based; conditions: for H3 phosphorylation (Ser-10): NB4 cells, 24 h
Experimental: as §3

ERK1/2 [4] = experiment: Western blot of phospho-ERK1/2 in NB4 cells; assay type: cell-based; conditions: 24 h
Experimental: as §3

[5] = plasma, humans; cited from earlier work
U-937 cells [6] = experiment: CD11c expression by flow cytometry in U-937 cells; assay type: cell-based; conditions: lower concentrations, 3 days
Experimental: as §1, §2

HL-60 cells = experiment: CD11c expression by flow cytometry in HL-60 cells; assay type: cell-based; conditions: 48 h
Experimental: as §1, §2

H3 [7] = experiment: Western blot of acetyl-H3 and phospho-H3 in U-937 cells; assay type: cell-based; conditions: higher concentrations, 18 h
Experimental: as §3

histones H3 and H4 = experiment: Western blot of acetylated histones H3 and H4 in NB4 cells; assay type: cell-based; conditions: concentrations required for apoptosis, NB4 cells, 24 h
Experimental: as §3

NB4 cells [8] = experiment: Apoptosis by Annexin V binding (flow cytometry) in NB4 cells; assay type: cell-based
Experimental: as §1, §4

Kasumi-1 cells = experiment: CD11c expression by flow cytometry in Kasumi-1 cells; assay type: cell-based; conditions: 3 days
Experimental: as §1, §2

ERK1/2 [9] = experiment: Western blot of phospho-ERK1/2 in U-937 cells; assay type: cell-based; conditions: higher concentrations, 18 h, total ERK1/2 unaffected
Experimental: as §3

[10] = in humans; cited from earlier work
[11] = p38 inhibitor treatment of NB4 cells (data not shown)

Compound: COCCC(=O)O [3-methoxypropionic acid]
- NB4 differentiation (NB4 cells [1]; NB4 cells): potent inducers

Compound: CC1=C(/C=C/C(C)=C/C=C/C(C)=C/C(=O)O)C(C)(C)CCC1 [ATRA, all-trans-Retinoic acid]
- transcription of RARE-containing reporter gene (RARE-TK-Luc) (RARE-TK-Luc reporter): can activate transcription
- expression level of PML-RARα fusion protein (PML-RARα): induced the degradation
- effect on percentage of cells expressing CD11c compared with 1 nM MAA (NB4 cells [1]; 0.1 nM ATRA, NB4 cells, 24 h): same order of magnitude
- percentage of cells expressing CD11b (NB4 cells [1]; ATRA 10 nM alone, NB4 cells, 24 h, from 26%): 51%
- NB4 cell differentiation (CD11c) (NB4 cells [1]; ATRA 1 μM): can induce NB4 cell differentiation
- sensitivity of NB4-R4 cells versus NB4 parental line (CD11c, CD11b) (NB4-R4 cells): less sensitive

Compound: CCCC(=O)O [BA, butyric acid]
- apoptosis (Annexin V) (U-937 cells [2]): inducing apoptosis
- level of phosphorylated C/EBPβ at Thr-235 (C/EBPβ; 17 h): increases phosphorylation
- phosphorylation of C/EBPβ at Thr-235 (C/EBPβ; lower concentrations, 24 h): maximal phosphorylation
- H3 phosphorylation (Ser-10) (H3 [3]; higher concentrations): dramatically increased
- H3 phosphorylation (Ser-10) (H3 [3]; lower concentrations): without effect
- levels of phosphorylated ERK (ERK1/2 [4]; higher concentrations (no differentiating effects), total ERK not decreased): dramatically decreased
- constitutive levels of phosphorylated ERK (ERK1/2 [4]; lower concentrations): did not change
- differentiation (CD11c) (NB4 cells [1]; BA 0.5 mM and 1 mM, NB4 cells, 24 h): differentiation was observed
- NB4 cell differentiation (CD11c) (NB4 cells [1]; BA 1 mM): can induce NB4 cell differentiation
- differentiation (CD11c) (NB4 cells [1]; BA 5 mM (or higher), NB4 cells, 24 h): failed to differentiate
- NB4 differentiation (NB4 cells [1]; NB4 cells): potent inducers
- half-life in vivo t1/2 [5]: 6 min
- expression of the differentiation marker CD11c (U-937 cells [6]): increasing expression
- differentiation as evidenced by expression of CD11c (HL-60 cells): induce differentiation
- H3 acetylation and phosphorylation (H3 [7]): increase
- H3 and H4 acetylation (histones H3 and H4): robust acetylation
- apoptosis (Annexin V) (NB4 cells [8]; BA 1 mM, NB4 cells, 21 h): effectively induces apoptosis
- percentage of cells expressing CD11c (Kasumi-1 cells): increased
- activity of ERK1/2 (phospho-ERK1/2) (ERK1/2 [9]): downregulate
- tolerability [10]: well-tolerated

Compound: O=C(CCCCCCC(=O)Nc1ccccc1)NO [SAHA, suberoylanilide hydroxamic acid]
- differentiation (NB4 cells [1]; SAHA at lower concentrations, NB4 cells (data not shown)): facilitated differentiation
- apoptosis (NB4 cells [8]; SAHA at higher concentrations, NB4 cells (data not shown)): effectively induced apoptosis

Compound: C[S+]([O-])c1ccc(-c2nc(-c3ccncc3)c(-c3ccc(F)cc3)[nH]2)cc1 (centres unmarked) [SB203580]
- effect on H3 phosphorylation at Ser-10 (H3 [3]; [11]): little effect
- effect on apoptosis (NB4 cells [8]; [11]): little effect

Compound: N#CC(=C(/N)Sc1ccccc1N)/C(C#N)=C(\N)Sc1ccccc1N [U0126]
- MAA- or BA-induced phosphorylation of C/EBPβ at Thr-235 (C/EBPβ; U0126 5 μM, 17 h, absolute protein level unchanged): blocks
- ATRA-induced differentiation (NB4 cells [1]; U0126 pretreatment 2 h, then ATRA 1 μM 21 h, NB4 cells): less dramatic effect
- MAA and BA-dependent differentiation as assessed by CD11c expression (NB4 cells [1]; U0126 pretreatment 2 h, then MAA 5 mM or BA 1 mM 21 h, NB4 cells): dramatically reduced
- number of BA-treated cells undergoing apoptosis (NB4 cells [8]): significantly increased

Compound: CCCC(CCC)C(=O)O [VPA, valproic acid]
- percentage of NB4 cells expressing CD11c (NB4 cells [1]; NB4 cells, FIG. 9): did not significantly increase
- apoptosis (NB4 cells [8]; as concentrations increase, NB4 cells, FIG. 9): potently induces apoptosis

Compound: CCOCC(=O)O [ethoxyacetic acid]
- NB4 differentiation (NB4 cells [1]; NB4 cells): potent inducers

Compound: CCC(=O)O [propionic acid]
- NB4 differentiation (NB4 cells [1]; NB4 cells): potent inducers

Compound: [Na+].[Na+].[Na+].[O]=[V]([O-])([O-])[O-] [sodium orthovanadate]
- apoptosis of NB4 cells in response to HDACI treatment (NB4 cells [8]; tyrosine phosphatase inhibitor treatment (data not shown)): did not inhibit

Compound: Phenylbutyrate
- half-life in vivo t1/2 [5]: 60 min
- tolerability [10]: well-tolerated

Compound: arsenic trioxide [ATO]
- expression level of PML-RARα fusion protein (PML-RARα): induced the degradation
- apoptosis (Annexin V) (NB4 cells [8]; ATO 0.1 μM, 0.5 μM alone, NB4 cells, 3 days): does not induce significant amount of apoptosis
